Source: US7098372B1, “Pharmaceutical compositions and methods of using secreted frizzled related protein” (Wyeth, priority 1999, dated 2006)

Experiments:
hOB SFRP mRNA [1] = assay: Northern blot analysis of hOB SFRP mRNA expression; type: cell-based, human; conditions: for regulation of SFRP mRNA: SaOS-2 human osteosarcoma cells
Excerpt: The hOB SFRP gene fragment was identified using RADE (rapid analysis of differential expression) technology as described by Shiue 1997 Drug Develop. Res. 41: 142–159, the whole of which is incorporated herein. Three hOB cell lines (hOB-03-C5, hOB-03-CE6 and hOB-01-C1), representing three distinct stages of differentiation (proliferative, mature and preosteocytic, respectively) were used to isolate and identify SFRP. The hOB cell lines were established and cultured as previously described (Bodine et al. 1996 J. Bone Miner. Res. 11: 806–819; Bodine et al. 1996 Endocrinology 137: 4592–4604; Bodine et al. 1997 J. Cell. Biochem. 65: 368–387). […] However, in contrast to osteosarcoma cells (Stein and Lian 1993 Endocrine Rev. 14: 424–442), the hOB cell lines were faithful to the proliferation/differentiation relationship at the nonpermissive temperature (>37° C.) when the T-antigen mutant is inactivated. The cell lines were seeded into 150 mm dishes at ˜40,000 cells/cm^2 with growth medium [D-MEM/F-12 containing 10% (v/v) heat-inactivated fetal bovine serum (FBS), 1% (v/v) Penicillin-Streptomycin and 2 mM GlutaMAX-1] and incubated overnight at 34° C. The next day, the medium was removed, the cells were rinsed with phosphate-buffered saline (PBS), 20 ml of serum-free medium was added to the dishes [phenol red-free D-MEM/F-12 (Gibco/BRL) containing 0.25% (w/v) bovine serum albumin (BSA, Pentex crystallized, Bayer), 1% (v/v) Penicillin-Streptomycin, 2 mM GlutaMAX-1, […] ascorbate-2-phosphate (Wako), and 10 nM menadione sodium bisulfite (vitamin K3)], and the dishes were incubated at 39° C. for 24 hr. The next day, the medium was removed and the cells were treated at 39° C. for an additional 24 hr with 20 ml of fresh serum-free medium containing either vehicle (Control), 8 nM human parathyroid hormone 1–34 (PTH), 100 nM prostaglandin E2 (PGE2) or 0.1 nM human transforming growth factor-β1 (TGF-β1). PTH, PGE2 and TGF-β1 are known osteogenic agents (Whitfield and Morley 1995 Trends Pharmaceut. Sci. 16:382–386; Jee and Ma 1997 Bone 21:297–304; Centrella et al. 1994 Endocrine Rev. 15:27–39). After the treatment period, the dishes were rinsed with PBS and total cellular RNA was isolated from the nontreated and treated cells using TRIzol according to the manufacturers instructions (GibcoBRL). RADE was then performed with the isolated RNA samples as above; the regulated gene fragments were identified, cloned and sequenced. These experiments identified a total of 82 differentially expressed genes. A BLAST (basic local alignment search tool) search of the public data bases was performed on the RADE-obtained gene fragments; one of the gene fragments was highly homologous to mouse SFRP-1. This gene fragment was identified during RADE using the following primer pair: 5′-[…]-3′ (HT11A)3′ end (reverse primer) and 5′-[…]-3′ (H-AP1) 5′ end (forward primer), which sequences are SEQ ID NO 11 and SEQ ID NO 12, respectively. The expression and regulation of the gene fragment having homology to mouse cDNA SFRP-1 was confirmed by Northern blot analysis.
In order to confirm the regulation of hOB SFRP gene expression by different osteogenic agents (i.e., the DNA fragment identified in Example 1, above), the hOB cell lines were treated with PTH, PGE2, and TGF-β1; RNA was then isolated for Northern hybridizations. The experiments were performed as follows. The hOB cell lines were seeded into 150 mm dishes and treated as described in Example 1, except that polyA+ RNA was isolated from total cellular RNA using Oligotex mRNA maxi kits as described by the manufacturer (Qiagen). Northern blot analysis was performed using either the excised RADE hOB SFRP gene fragment, the cloned hOB SFRP gene fragment or the cloned full-length hOB SFRP cDNA as a ^32P-labeled probe (as described in Bodine et al. 1996 J. Bone Miner. Res. 11: 806–819, which is incorporated herein). Each of these probes detected a 4.4–4.6 kb message in the hOB cells. […]

hOB SFRP mRNA [2] = assay: TaqMan quantitative RT-PCR of hOB SFRP mRNA; type: cell-based, human; conditions: 24 hr
Description: In a similar manner, the hOB-01-C1 cells were seeded into 100 mm dishes and treated for 24 hr with increasing concentrations of TGF-β1. Total RNA was then isolated from the cells, and hOB SFRP mRNA was measured by TaqMan quantitative RT-PCR. TGF-β1 suppressed SFRP gene expression by approximately 70% in a dose-dependent manner with an IC50 of about 4 pM.
In addition to the hOB cell lines from which SFRP was initially identified, additional in vitro human osteoblast models were examined for the presence of the gene. SaOS-2 human osteosarcoma osteoblast-like cells were obtained from the American Type-Culture Collection (ATCC) and were cultured at 37° C. in McCoy's 5A Modified medium containing 10% FBS, 1% (v/v) Penicillin-Streptomycin and 2 mM GlutaMAX-1. Likewise, explant cultures of normal human osteoblasts (hOBs) were established from cancellous bone chips as previously described (Bodine et al. 1996 J. Bone Miner. Res. 11: 806–819, which is incorporated herein by reference). The cells were then seeded into 150 mm dishes and treated as described in Examples 1 and 4, except that the cells were incubated at 37° C. instead of 39° C. PolyA+ RNA Northern blot analysis was performed using the cloned 1.1 kb hOB SRFP gene fragment as a ^32P-label). SaOS-2 cells expressed relatively low basal levels of SFRP mRNA which was not regulated by treatment with either PTH, PGE2 or TGF-β1 (FIG. 7). It was difficult to quantify expression of this gene in these cells, since the level of expression was low. In contrast, normal hOB cells expressed higher basal levels of SFRP message, and treatment of the cells with 100 nM PGE2 for 24 hr appeared to slightly up-regulate the steady-state levels of this mRNA (˜1.3-fold). […] Due to the low basal level expression in osteosarcoma cells, these cells may not be satisfactory in vitro models to study the regulation of the SFRP gene. Since the gene is expressed and regulated by PGE2 in cultures of normal human osteoblasts, the use of the hOB cell lines described in the present invention is validated for in vitro osteoblast models.

| Molecule | regulation of SFRP mRNA (hOB SFRP mRNA [1]; 24 hr, 37° C.) | suppression of hOB SFRP mRNA levels (hOB SFRP mRNA [1]; hOB-01-C1 cells, 100 pM, 24 hr) [%] | IC50 (hOB SFRP mRNA [2]; hOB-01-C1 cells, read-out: IC50 for suppression of SFRP gene expression) [nM] | suppression of SFRP gene expression (hOB SFRP mRNA [2]; hOB-01-C1 cells, increasing concentrations) | time course of hOB SFRP mRNA expression (hOB SFRP mRNA [1]; hOB-03-C5 cells, 100 nM, 2 to 24 hr) | hOB SFRP mRNA expression (hOB SFRP mRNA [1]; hOB-03-C5 cells, 100 nM, 24 hr) | EC50 (hOB SFRP mRNA [1]; hOB-03-C5 cells, increasing concentrations, 24 hr, read-out: EC50 for up-regulation of hOB SFRP mRNA expression) [nM] | EC50 for up-regulation of hOB SFRP mRNA, times higher than in the hOB-03-C5 cells (hOB SFRP mRNA [1]; hOB-03-CE6 cells) | hOB SFRP mRNA expression (hOB SFRP mRNA [1]; maturation-stage hOB-03-CE6 cells) | up-regulation of steady-state SFRP mRNA levels (hOB SFRP mRNA [1]; normal hOB cells (explant cultures), 100 nM, 24 hr, 37° C.) [fold] | up-regulation of SFRP message (hOB SFRP mRNA [2]; normal hOB cells (explant cultures), 100 nM) [fold] |
| --- | --- | --- | --- | --- | --- | --- | --- | --- | --- | --- | --- |
| human transforming growth factor-β1 [TGF-β1] | not regulated | 80 | ~0.004 | approximately 70% |  |  |  |  |  |  |  |
| CCCCC[C@H](O)/C=C/[C@H]1[C@H](O)CC(=O)[C@@H]1C/C=C\CCCC(=O)O [PGE2, prostaglandin E2] | not regulated |  |  |  | up-regulated hOB SFRP mRNA expression in a time-dependent manner | completely up-regulated | ~8 | about 10 times | up-regulation | ~1.3 | 10 |
